# Target: T1, MCT4 (Homo sapiens, UniProt O15427)
# T1 sequence (O15427 1-465): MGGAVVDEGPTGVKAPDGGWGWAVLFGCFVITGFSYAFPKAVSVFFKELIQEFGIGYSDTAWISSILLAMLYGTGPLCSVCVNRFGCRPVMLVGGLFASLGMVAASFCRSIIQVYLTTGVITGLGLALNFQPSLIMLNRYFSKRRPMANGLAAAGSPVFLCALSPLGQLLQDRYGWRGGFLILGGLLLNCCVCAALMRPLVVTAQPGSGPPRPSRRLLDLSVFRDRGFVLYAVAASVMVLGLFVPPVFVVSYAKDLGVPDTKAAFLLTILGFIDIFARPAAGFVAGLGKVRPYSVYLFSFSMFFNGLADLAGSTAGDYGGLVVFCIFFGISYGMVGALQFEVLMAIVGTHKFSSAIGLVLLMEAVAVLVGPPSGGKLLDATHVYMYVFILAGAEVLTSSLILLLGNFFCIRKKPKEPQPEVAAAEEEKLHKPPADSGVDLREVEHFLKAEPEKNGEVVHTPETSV
# Test: Assay (a): lactate efflux from SK-Br-3 cells (lactate in media, 4 h)
# Format: cell-based
# Design: a natively glycolytic human breast adenocarcinoma line predominantly expressing MCT4; host or cells: SK-Br-3
# Conditions: mean of at least three repeats (Example 32, marked *, two repeats), read-out: MCT4 lactate efflux pIC50 (SKBR3) (converted)
# Protocol: Assay plates were lidded and incubated for 4 hours at 37° C. and 5% CO2.
row,SMILES,IC50 [nM]
1,"COc1cc(CN2CCN(C)CC2)ccc1-c1ncc(N2CC[C@@H](Cc3c(C)nc4nc(C)nn4c3C)C2)cn1 [Example 12, (R)-6-((1-(2-(2-methoxy-4-((4-methylpiperazin-1-yl)methyl)phenyl)pyrimidin-5-yl)pyrrolidin-3-yl)methyl)-2,5,7-trimethyl-[1,2,4]triazolo[1,5-a]pyrimidine]",3.98
2,"Cc1nc2nc(C)c(C[C@@H]3CCN(c4cnc(-c5ccc(CN6C[C@@H](C)N(C)[C@@H](C)C6)cc5)cn4)C3)c(C)n2n1 [Example 32, 2,5,7-trimethyl-6-(((R)-1-(5-(4-(((3R,5S)-3,4,5-trimethylpiperazin-1-yl)methyl)phenyl)pyrazin-2-yl)pyrrolidin-3-yl)methyl)-[1,2,4]triazolo[1,5-a]pyrimidine]",1.26
3,"COCCN1CCN(Cc2ccc(-c3ncc(N4CC[C@@H](Cc5c(C)nc6nc(C)nn6c5C)C4)cn3)cc2)CC1 [Example 18, (R)-6-((1-(2-(4-((4-(2-methoxyethyl)piperazin-1-yl)methyl)phenyl)pyrimidin-5-yl)pyrrolidin-3-yl)methyl)-2,5,7-trimethyl-[1,2,4]triazolo[1,5-a]pyrimidine]",0.631
4,"Cc1nc2nc(C)c(C[C@@H]3CCN(c4ccc(-c5ncc(CN6CCN(C)CC6)cn5)cc4)C3)c(C)n2n1 [Example 25, (R)-2,5,7-trimethyl-6-((1-(4-(5-((4-methylpiperazin-1-yl)methyl)pyrimidin-2-yl)phenyl)pyrrolidin-3-yl)methyl)-[1,2,4]triazolo[1,5-a]pyrimidine]",0.794
5,"Cc1nc2nc(C)c(C[C@@H]3CCN(c4cnc(-c5ccc(CN6C[C@@H](C)N[C@@H](C)C6)cc5)nc4)C3)c(C)n2n1 [Example 14, 6-(((R)-1-(2-(4-(((3R,5S)-3,5-dimethylpiperazin-1-yl)methyl)phenyl)pyrimidin-5-yl)pyrrolidin-3-yl)methyl)-2,5,7-trimethyl-[1,2,4]triazolo[1,5-a]pyrimidine]",2
6,"Cc1nc2nc(C)c(C[C@@H]3CCN(c4ccc(-c5cnc(CN6CCN(C)CC6)nc5)cc4)C3)c(C)n2n1 [Example 22, (R)-2,5,7-trimethyl-6-((1-(4-(2-((4-methylpiperazin-1-yl)methyl)pyrimidin-5-yl)phenyl)pyrrolidin-3-yl)methyl)-[1,2,4]triazolo[1,5-a]pyrimidine]",1
7,"Cc1nc2nc(C)c(C[C@@H]3CCN(c4cnc(-c5ccc(CN6CCC(S(C)(=O)=O)CC6)cc5)cn4)C3)c(C)n2n1 [Example 46, 2,5,7-trimethyl-6-({(3R)-1-[5-(4-{[4-(methylsulfonyl)piperidin-1-yl]methyl}phenyl)pyrazin-2-yl]pyrrolidin-3-yl}methyl)[1,2,4]triazolo[1,5-a]pyrimidine]",0.2
8,"Cc1nc2nc(C)c(C[C@@H]3CCN(c4cnc(-c5ccc(CN6CCN(C)[C@H](C)C6)cc5)cn4)C3)c(C)n2n1 [Example 33, 6-(((R)-1-(5-(4-(((R)-3,4-dimethylpiperazin-1-yl)methyl)phenyl)pyrazin-2-yl)pyrrolidin-3-yl)methyl)-2,5,7-trimethyl-[1,2,4]triazolo[1,5-a]pyrimidine]",2.51
9,"Cc1nc2nc(C)c(C[C@@H]3CCN(c4ccc(-c5cnc(CN6CCOCC6)nc5)cc4)C3)c(C)n2n1 [Example 28, (R)-4-((5-(4-(3-((2,5,7-trimethyl-[1,2,4]triazolo[1,5-a]pyrimidin-6-yl)methyl)pyrrolidin-1-yl)phenyl)pyrimidin-2-yl)methyl)morpholine]",0.251
10,"Cc1nc2nc(C)c(C[C@@H]3CCN(c4cnc(-c5ccc(CN6CCC(CO)CC6)cc5)cn4)C3)c(C)n2n1 [Example 44, {1-[4-(5-{(3R)-3-[(2,5,7-trimethyl[1,2,4]triazolo[1,5-a]pyrimidin-6-yl)methyl]pyrrolidin-1-yl}pyrazin-2-yl)benzyl]piperidin-4-yl}methanol]",0.631
11,"CC(=O)N1CCN(Cc2ccc(-c3ncc(N4CC[C@@H](Cc5c(C)nc6nc(C)nn6c5C)C4)cn3)cc2)CC1 [Example 17, (R)-1-(4-(4-(5-(3-((2,5,7-trimethyl-[1,2,4]triazolo[1,5-a]pyrimidin-6-yl)methyl)pyrrolidin-1-yl)pyrimidin-2-yl)benzyl)piperazin-1-yl)ethanone]",0.251
12,"Cc1nc2nc(C)c(C[C@@H]3CCN(c4cnc(-c5ccc(CN6CCCN(C)CC6)cc5)cn4)C3)c(C)n2n1 [Example 83, (R)-2,5,7-trimethyl-6-((1-(5-(4-((4-methyl-1,4-diazepan-1-yl)methyl)phenyl)pyrazin-2-yl)pyrrolidin-3-yl)methyl)-[1,2,4]triazolo[1,5-a]pyrimidine]",0.794
13,"Cc1nc2nc(C)c(C[C@@H]3CCN(c4cnc(-c5ccc(CN6CCN(CC(=O)N(C)C)CC6)cc5)nc4)C3)c(C)n2n1 [Example 15, (R)—N,N-dimethyl-2-(4-(4-(5-(3-((2,5,7-trimethyl-[1,2,4]triazolo[1,5-a]pyrimidin-6-yl)methyl)pyrrolidin-1-yl)pyrimidin-2-yl)benzyl)piperazin-1-yl)acetamide]",1
14,"Cc1nc2nc(C)c(C[C@@H]3CCN(c4cnc(-c5ccc(CN6CCN(C)CC6)cn5)cn4)C3)c(C)n2n1 [Example 39, (R)-2,5,7-trimethyl-6-((1-(5-(5-((4-methylpiperazin-1-yl)methyl)pyridin-2-yl)pyrazin-2-yl)pyrrolidin-3-yl)methyl)-[1,2,4]triazolo[1,5-a]pyrimidine]",2.51
15,"CC(=O)N1CCCN(Cc2ccc(-c3cnc(N4CC[C@@H](Cc5c(C)nc6nc(C)nn6c5C)C4)cn3)cc2)CC1 [Example 79, 1-[4-[[4-[5-[(3R)-3-[(2,5,7-trimethyl-[1,2,4]triazolo[1,5-a]pyrimidin-6-yl)methyl]pyrrolidin-1-yl]pyrazin-2-yl]phenyl]methyl]-1,4-diazepan-1-yl]ethanone]",0.316
16,"Cc1nc2nc(C)c(C[C@@H]3CCN(c4ccc(-c5cnc(CN6CCOCC6)cn5)nc4)C3)c(C)n2n1 [Example 7, (R)-4-((5-(5-(3-((2,5,7-trimethyl-[1,2,4]triazolo[1,5-a]pyrimidin-6-yl)methyl)pyrrolidin-1-yl)pyridin-2-yl)pyrazin-2-yl)methyl)morpholine]",0.316
17,"Cc1nc2nc(C)c(C[C@@H]3CCN(c4cnc(-c5ccc(CN6CCN(C)CC6)cc5C)nc4)C3)c(C)n2n1 [Example 13, (R)-2,5,7-trimethyl-6-((1-(2-(2-methyl-4-((4-methylpiperazin-1-yl)methyl)phenyl)pyrimidin-5-yl)pyrrolidin-3-yl)methyl)-[1,2,4]triazolo[1,5-a]pyrimidine]",2.51
18,"Cc1nc2nc(C)c(C[C@@H]3CCN(c4ccc(-c5ccc(CN6CCOCC6)nc5)cn4)C3)c(C)n2n1 [Example 1, (R)-4-((6′-(3-((2,5,7-trimethyl-[1,2,4]triazolo[1,5-a]pyrimidin-6-yl)methyl)pyrrolidin-1-yl)-[3,3′-bipyridin]-6-yl)methyl)morpholine]",0.316
19,"Cc1nc2nc(C)c(C[C@@H]3CCN(c4cnc(-c5ccc(CN6CCS(=O)(=O)CC6)cc5)cn4)C3)c(C)n2n1 [Example 45, 6-{[(3R)-1-(5-{4-[(1,1-dioxidothiomorpholin-4-yl)methyl]phenyl}pyrazin-2-yl)pyrrolidin-3-yl]methyl}-2,5,7-trimethyl[1,2,4]triazolo[1,5-a]pyrimidine]",0.2
